This note sets out measurements from patent publication US20080161278A1, “2-Azetidinyl-4-(1H-Pyrazol-3-Ylamino) Pyrimidines as Inhibitors of Insulin-Like Growth Factor-1 Receptor Activity” (ASTRAZENECA AB, priority 2005, published 2008).

The assay has as its system murine fibroblasts (NIH3T3) over-expressing human IGF-1 receptor. As to the kind of experiment: Test (c): inhibition of IGF-stimulated cell proliferation (BrdU incorporation). The class given is cell-based. The note with it: Mus musculus. As to the method: c) Inhibition of IGF-Stimulated Cell Proliferation
The construction of murine fibroblasts (NIH3T3) over-expressing human IGF-1 receptor has been described by Lammers et al (EMBO J, 8, 1369-1375, 1989). These cells show a proliferative response to IGF-I which can be measured by BrdU incorporation into newly synthesised DNA. Compound potency was determined as causing inhibition of the IGF-stimulated proliferation in the following assay:
Compounds are initially dissolved in DMSO to 10 mM, followed by dilutions in DMEM+1% FCS+glutamine to give a range from […] in 1-0.00045% DMSO final concentration in assay well.
Exponentially growing NIH3T3/IGFR cells were harvested and seeded in complete growth medium into a flat-bottomed 96 well tissue culture grade plate (Costar 3525) at 1.2×10^4 cells per well in a volume of 100 μl.
Growth medium was carefully removed from each well using a multi-channel pipette. Wells were carefully rinsed three times with 200 μl with HBSS. 100 μl of starvation medium was added to each well and the plate was re-incubated for 24 hours.
50 μl of a 4× concentrate of test compound was added to appropriate wells. Cells were incubated for 30 minutes with compound alone before the addition of IGF. […]
The incorporation of BrdU in the cells (after a 4 h incorporation period) was assessed using the BrdU Cell Proliferation Elisa according to the manufacturer's protocol.
In general terms: Dividing cells build labelled thymidine or BrdU into new DNA.

Compound `Cc1cc(Nc2cc(N3CCOCC3)nc(N3CCC3c3cc(-c4ccccn4)no3)n2)n[nH]1` (centres unmarked) [Example 2, 6-Morpholino-2-{2-[3-(pyrid-2-yl)isoxazol-5-yl]azetidin-1-yl}-4-(5-methyl-1H-pyrazol-3-ylamino)pyrimidine] registered an IC50 of 0.04 µM.
The same measure for `Cc1cc(Nc2cc(C)[nH]n2)nc(N2CCC2c2cc(-c3ccccn3)no2)n1` (centres unmarked) [Example 4, 6-Methyl-2-{2-[3-(pyrid-2-yl)isoxazol-5-yl]azetidin-1-yl}-4-(5-methyl-1H-pyrazol-3-ylamino)pyrimidine]: 0.06 µM.

By IC50 is commonly meant the concentration at which inhibition is half-maximal.
